# Measurements as given in article PMC10487437 (International Journal of Molecular Sciences, 2023).
# Entries after “also recorded” stand apart in the source; their conditions may differ. Like-named read-outs stand apart in the source and are kept apart here. Square brackets hold non-standard residues; d marks the D form. Peptide text beside a SMILES is read from it. * marks the point of attachment. Nle = CCCC[C@H](N)C(=O)O; Cbz = O=C(OCc1ccccc1)*
# Tests used:
# [1] = target: T1, 20S brain proteasome, chymotrypsin-like activity (Mus musculus, UniProt O09061+O55234); assay: Inhibition of 20S brain proteasome hydrolysis of Suc-LLVY-AMC (chymotrypsin-like activity); format: biochemical; settings: 20 mM Tris-HCl pH 7.5, 1 mM DTT, 1 mM EDTA; [20S] = 50 nM; [Suc-LLVY-AMC] = 50 µM
# T1 construct: from tissue; host or cells: mouse brain
# Excerpt: (§1) Figure 7 The dependence of 20S proteasome activity on marizomib concentration during hydrolysis of peptide fluorogenic substrates. (a) hydrolysis of model oligoglutamine substrates, Dabcyl-KQ5-PPDE-EDANS (Q5) or Dabcyl-KQ10-PPDE-EDANS (Q10). (b) hydrolysis of standard coumarine-modified peptide substrates. The experimental data are approximated by the function y = A1 + (A2 − A1)/(1 + 10^(LOGx0–x)p), where A1 and A2 are the minimum and maximum values of log10(Ci), respectively, LOGx0 is the logarithm of the EC50 (the concentration giving a response half-way between the upper and lower asymptotes), and p is the Hill coefficient.
# [2] = test system: T2, 20S brain proteasome; assay: Inhibition of 20S brain proteasome hydrolysis of oligoglutamine-containing FRET substrates; format: biochemical, mouse; settings: [20S] = 50 nM; for IC50: 20 mM Tris-HCl pH 7.5, 1 mM DTT, 1 mM EDTA
# T2 construct: from tissue; host or cells: mouse brain
# Excerpt: as §1
# [3] = target: T3, 20S brain proteasome, caspase-like activity (Mus musculus, UniProt P70195+Q60692); assay: Inhibition of 20S brain proteasome hydrolysis of Z-LLE-AMC (caspase-like activity); format: biochemical; settings: [20S] = 50 nM; for IC50: 20 mM Tris-HCl pH 7.5, 1 mM DTT, 1 mM EDTA, [Z-LLE-AMC] = 50 µM
# T3 construct: from tissue; host or cells: mouse brain
# Excerpt: as §1
# [4] = target: T4, 20S brain proteasome, trypsin-like activity (Mus musculus, UniProt P70195+Q9R1P1); assay: Inhibition of 20S brain proteasome hydrolysis of Ac-RLR-AMC (trypsin-like activity); format: biochemical; settings: [20S] = 50 nM; for IC50: 20 mM Tris-HCl pH 7.5, 1 mM DTT, 1 mM EDTA, [Ac-RLR-AMC] = 50 µM
# T4 construct: from tissue; host or cells: mouse brain
# Excerpt: as §1
# [5] = test system: T5, 20S proteasome from murine brain; assay: Specific peptidase activity of 20S proteasome with additives (Table S1); format: biochemical, mouse; settings: 20S plus additive: 0.5 µM Bortezomib, 0.1 µM MG132, 0.02% SDS or 11S (1:2, mole:mole); 20S alone 2.37 ± 0.13; means ± SEM of three independent experiments run in duplicate
# T5 construct: from tissue; host or cells: mouse brain
# Excerpt: Characterization of puriﬁed proteasomes
# teasomes. […] To conﬁrm that
# cathepsin B [48] (Table S1).
# reaction mixture for both 20S and 26S.
# Table S1. Peptidase activity of the samples of 20S and 26S proteasome from murine brain.
# The molar ratio between the proteasome
# [6] = test system: 20S proteasome; assay: 20S proteasome isolated from mouse brains, in 50 mM Tris-HCl, 1 mM EDTA, 1 mM DTT, 10% glycerol, pH = 7.5; settings: 37 °C, up to 72 h
# [7] = test system: 26S+11S; assay: 26S proteasome with 11S regulator, both isolated from mouse brains, in Tris-HCl buffer pH = 7.5 with 5 mM ATP-MgCl2; settings: 37 °C, up to 72 h
# [8] = test system: 26S proteasome; assay: 26S proteasome isolated from mouse brains, in Tris-HCl buffer pH = 7.5 with 5 mM ATP-MgCl2; settings: 37 °C, up to 72 h
# [9] = test system: 20S+11S; assay: 20S proteasome with 11S regulator, both isolated from mouse brains, in Tris-HCl buffer pH = 7.5; settings: 37 °C, up to 72 h
# [10] = fit of dose-response curve (Figure 7)
# [11] = fit of dose-response curve (Figure 7), substrate 50 µM
Compound,IC50 [1] [µM],IC50 [3] [µM],IC50 [4] [µM],cleaved bond [6],cleaved bond [7],cleaved bond [8],cleaved bond [9],further results
C[C@@]12OC(=O)[C@]1([C@@H](O)[C@@H]1C=CCCC1)NC(=O)[C@@H]2CCCl [Marizomib],0.0093 ± 0.0015,0.61 ± 0.04,0.111 ± 0.008,,,,,"Hill coefficient, inhibition of Dabcyl-KQ5 PPD-EDANS hydrolysis [2, 10]: (−0.69); Hill coefficient, inhibition of Dabcyl-KQ10 PPD-EDANS hydrolysis [2, 10]: (−0.39); IC50 ([2]; substrate Dabcyl-KQ5 PPD-EDANS, read-out: IC50 of Dabcyl-KQ5 PPD-EDANS hydrolysis by 20S brain proteasome): 0.323 ± 0.015 µM; IC50 ([2]; substrate Dabcyl-KQ10 PPD-EDANS, read-out: IC50 of Dabcyl-KQ10 PPD-EDANS hydrolysis by 20S brain proteasome): 0.48 ± 0.02 µM; Hill coefficient, inhibition of Z-LLE-AMC hydrolysis [3, 11]: (−1.1); Hill coefficient, inhibition of Ac-RLR-AMC hydrolysis [4, 11]: (−1.51)"
CC(C)C[C@@H](C=O)NC(=O)[C@H](CC(C)C)NC(=O)[C@H](CC(C)C)NC(=O)OCc1ccccc1 [Z-LLL-CHO (MG132)] (Cbz-Leu-Leu-Leu-aldehyde),0.012 ± 0.003,0.155 ± 0.005,2.8 ± 0.3,,,,,"IC50 ([2]; substrate Dabcyl-KQ5 PPD-EDANS, n.d. = not detected, read-out: IC50 of Dabcyl-KQ5 PPD-EDANS hydrolysis by 20S brain proteasome): 50 ± 6 µM; IC50 ([2]; substrate Dabcyl-KQ10 PPD-EDANS, n.d. = not detected, read-out: IC50 of Dabcyl-KQ10 PPD-EDANS hydrolysis by 20S brain proteasome): 72 ± 8 µM; Specific peptidase activity using Suc-LLVY-AMC [5]: 0.093 ± 0.003 nM/min/µg"
CCCC[C@H](NC(=O)[C@@H]1CCCN1C(=O)OCc1ccccc1)C(=O)N[C@H](C=O)CC(=O)O [Z-P-nLeu-D-CHO] (Cbz-Pro-[Nle]-Asp-aldehyde),100 ± 10,5.1 ± 0.3,> 150,,,,,
Dabcyl-KQ5GD-EDANS,,,,"Q2-Q3, major; also recorded: Q4-Q5, major","Q2-Q3, major; also recorded: Q4-Q5, major","Q2-Q3, major; also recorded: Q4-Q5, major","Q2-Q3, major; also recorded: Q4-Q5, major",
Dabcyl-KQ10PPD-EDANS,,,,"Q3-Q4, major, 2 h; also recorded: Q2-Q3, major, 2 h","Q2-Q3, major; also recorded: Q3-Q4, major","Q2-Q3, major; also recorded: Q3-Q4, major","Q2-Q3, major; also recorded: Q3-Q4, major",
